Key:
[1] = test system: human peripheral blood mononuclear cells (PBMC); assay: Cell viability of quiescent and PHA-activated PBMC; assay type: cell-based; details: up to 10 µM, 24 h
Text: U-937, HL-60, MOLT-3, NALM-6, and SK-MEL-1 cells were from DSMZ (German Collection of Microorganisms and Cell Cultures, Braunschweig, Germany). U-937/Bcl-2 cells were kindly provided by Dr. Jacqueline Bréard (INSERM U749, Faculté de Pharmacie Paris-Sud, Châtenay-Malabry, France). The U-937 is a pro-monocytic, human promyelocytic leukemia cell line that was isolated from a histiocytic lymphoma. HL-60 is a human acute myeloid leukemia cell line. MOLT-3 is a human acute lymphoblastic leukemia cell line. NALM-6 is a human B cell precursor leukemia. SK-MEL-1 is a human melanoma cell line growing singly or in clumps (occasional giant, polynucleated cell) in suspension. […] The cytotoxicity of the synthetic compounds was evaluated by colorimetric 3-(4,5-dimethyl-2-thiazolyl-)-2,5-diphenyl-2H-tetrazolium bromide (MTT) assay as previously described. […] Sodium dodecyl sulfate (10% w/v) in 0.05 M HCl was added to solubilize the reaction products and the absorbance was measured at 570 nm with a reference wavelength of […] using an ELISA reader (Bio-Rad, Hercules, CA, USA). […]
Figure 2 (a) Dose-response study of hybrid chalcone–guanidines on human U-937 leukemia cell viability. Cells were cultured in the presence of increasing concentrations of selected guanidines for 72 h, and thereafter cell viability was determined by the MTT assay. […]

U-937 cells = assay: Western blot of PARP, caspases and cytosolic cytochrome c; assay type: cell-based, human; details: 24 h; for full-length PARP protein (immunoblot): U-937, 10 µM; for mitochondrial cytochrome c release (cytosolic fraction, immunoblot): U-937, increasing concentrations
Description: For whole cell lysates, cells were harvested by centrifugation (500× g, 10 min, 4 °C), washed twice with PBS, and pellets were resuspended in lysis buffer (1% Triton X-100, 10 mM sodium fluoride, 2 mM EDTA, 20 mM Tris-HCl (pH 7.4), 2 mM tetrasodium pyrophosphate, 10% glycerol, 137 mM NaCl, and 20 mM sodium β-glycerophosphate), with the protease inhibitors phenylmethylsulfonyl fluoride (PMSF, 1 mM), aprotinin, leupeptin, and pepstatin A (5 μg/mL each) and kept on ice for 15 min. Cells were sonicated on ice 5 times (5 s each, with intervals between each sonication of 5 s) with a Braun Labsonic 2000 microtip sonifier and centrifuged (11,000× g, 10 min, 4 °C). For subcellular fractionation, cells were washed twice with PBS and then resuspended in ice-cold buffer (20 mM HEPES (pH 7.5), 250 mM sucrose, 10 mM KCl, 1.5 mM MgCl2, 1 mM EDTA, 1 mM EGTA, and 1 mM dithiothreitol containing protease inhibitors (0.1 mM PMSF and 1 µg/mL leupeptin, aprotinin, and pepstatin A)). After 15 min on ice, cells were lysed by pushing them several times through a 29-gauge needle, and the lysate was centrifuged at 1000× g for 5 min at 4 °C. The resulting supernatant fraction was centrifuged at 15,000× g for 20 min at 4 °C, and the resulting supernatant was used as the cytosolic fraction. The Bradford method was used to determine protein concentration. The samples loaded in sodium dodecyl sulfate-polyacrylamide gel (from 7.5 to 15% depending on the molecular weight of interest) were prepared with the same protein amount and boiled for 5 min. The proteins were transferred to poly(vinylidene difluoride) membranes for 20 h at 20 V. The membranes were blocked with 10% nonfat milk in Tris-buffered saline (50 mM Tris-HCl (pH 7.4), 150 mM NaCl) containing 0.1% Tween-20 (TBST) for 1 h, followed by incubation with specific antibodies against caspase-3, PARP, caspase-9, β-actin, tubulin, and cytochrome c overnight at 4 °C. Membranes were washed three times with TBST and incubated for 1 h with the specific secondary antibody and the antigen-antibodies complexes were visualized by enhanced chemiluminescence using the manufacturer’s protocol.

Structure (SMILES) | cytotoxicity against proliferating and quiescent lymphocytes (PBMC) versus U-937 [1] | full-length PARP protein (immunoblot) (U-937 cells) | mitochondrial cytochrome c release (cytosolic fraction, immunoblot) (U-937 cells)
Cc1ccc(S(=O)(=O)NC(=Nc2ccc(/C=C/C(=O)c3c(O)cccc3OCc3ccccc3)cc2)N2CCN(C)CC2)cc1 [Compound 6f] | lower cytotoxicity | dramatically decreased | concentration-dependent release
O=C(/C=C/c1ccc(N=C(Nc2ccccc2)N2CCCCC2)cc1)c1c(O)cccc1OCc1ccccc1 [Compound 6i] | lower cytotoxicity | dramatically decreased | concentration-dependent release

Source: PMC9779571, “Guanidine Derivatives Containing the Chalcone Skeleton Are Potent Antiproliferative Compounds against Human Leukemia Cells” (International Journal of Molecular Sciences, 2022)
